In patent publication US20230226092A1, “CANCER […] ON G[…]” (NuCana plc, priority 2015, published 2023):
“Also recorded” adds a separate entry of the source.

How the values were obtained:
[1] = test system: primary acute myeloid leukaemia (AML) blasts; assay: In vitro cytotoxicity assay (annexin V apoptosis) in primary acute myeloid leukemia cells; format: cell-based, human
Experimental: NUC-1031 was assayed for its cytotoxic effects on primary cultures of acute myeloid leukaemia (AML) blasts. LD50 values (the concentration required to kill 50% of the tumour cells in culture) were calculated in respect of NUC-1031 and gemcitabine.
Bone marrow samples were collected in ethylenediaminetetraacetic acid (EDTA) from newly diagnosed, previously untreated, acute myeloid leukemia (AML) patients. AML blasts were enriched by density gradient centrifugation using Histopaque (Sigma, Poole, UK) and were subsequently maintained in Roswell Park Memorial Institute medium (RPMI) supplemented with 10% foetal bovine serum (FBS). Cells were treated with Gemcitabine or NUC-1031 at concentrations between 0.25 µM and 10 µM, and incubated for 48h. All cultures were maintained at 37° C. in a 5% CO2 humidified atmosphere.
Cells were harvested and labelled with CD34-fluorescein isothiocyanate (FITC) (BD Biosciences, Buckingham, UK) and then resuspended in 200 µl of binding buffer containing 4µl of annexin V labelled with allophycocyanin (APC) (eBioscience Ltd, Hatfield, UK). Apoptosis was quantified in the CD34^+ AML cells using an Accuri C6 flow cytometer (Becton Dickinson, CA, USA). At least 10,000 events were acquired and data were subsequently analysed using FlowJo software (Tree Star Inc., Ashland, OR, USA). All LD50 values (concentration of drug required to kill 50% of cells) were derived from the dose-response curves.

[2] = test system: Lin^-/CD34^+/CD38^-/CD123^+ CSCs of KG1a cells; assay: Immunophenotypic identification of the leukaemic stem cell compartment in KG1a; format: cell-based, human; conditions: 72 h, sub-micromolar concentrations
Experimental: (§1) KG1a cells were cultured for 72 hours in the presence of a wide range of concentrations of each nucleoside analogue and their respective ProTides. Cells were then harvested and labelled with a cocktail of anti-lineage antibodies (PE-cy7), anti-CD34 (FITC), anti-CD38 (PE) and anti-CD123 (PERCP cy5). The sub-population expressing a leukaemic stem cell (LSC) phenotype were subsequently identified and were expressed as a percentage of all viable cells left in the culture. The percentages of stem cells remaining were then plotted on a dose-response graph and the effects of the ProTides were compared with the parental nucleoside.
as §1, with “compound assayed.” for “nucleoside analogue and their respective ProTides.”, “CSC” for “leukaemic stem cell (LSC)”, “CSCs” for “stem cells”, “NUC-1031 (and its purified isomers)” for “ProTides”, “gemcitabline.” for “the parental nucleoside.”

[3] = ProGem1 dose escalation clinical study: safety and tolerability; format: in vivo, human
Experimental: Although the primary objectives of the dose escalation part of the study were to determine the Recommended Phase II Dose (RP2D) and safety profile, secondary objectives included determining the PK profile, however effective treatment of patients with a range of refractory cancers has also been observed as part of this study.
NUC-1031 was administered as a 5 to 30 minute intravenous slow bolus injection. • Schedule A: NUC-1031 was administered on days 1, 8, 15 of a 4 weekly Cycle. • Schedule B: NUC-1031 was administered on days 1, 5, 8, 12, 15, 19, of a 4 weekly Cycle.

[4] = test system: CD34^+/CD123^+ leukaemic stem cells; assay: Quantification of CD34+/CD123+ sub-populations in primary AML cells; format: cell-based, human
Experimental: Putative leukaemic stem cells were identified by dual expression of CD34 and CD123. The relative sensitivity of these cells to the effects of gemcitabine and NUC-1031 were assessed as a function of the percentage of these cells that remained viable following exposure to molar equivalents of each agent.

gemcitabine-[phenyl-benzoxy-L-alaninyl)]-phosphate [NUC-1031]
cytotoxic potency on CSCs and non-stem cancer cells compared with gemcitabine ([1]; AML blast cultures): increased potency | mean LD50 ([1]; primary AML blasts, CD34+ cells, 48h, annexin V): 1.6 µM | targeting of CSCs compared with Gemcitabine [2]: preferential targeting of CSCs | Adverse events (grade) / tolerability ([3]; Patient 004, breast cancer, 500 mg/m^2 weekly): tolerated treatment well | Adverse events (grade) / tolerability ([3]; Patient 005, ovarian cancer, 500 mg/m^2 weekly): tolerated treatment well | Adverse events (grade) / tolerability ([3]; Patient 007, colorectal cancer, possible linked to splenomegaly at baseline): thrombocytopaenia (G3) | Adverse events (grade) / tolerability ([3]; Patient 008, cancer of unknown primary, 375 mg/m^2 twice weekly, pleural effusion unlikely related to study drug): transient (G3) transaminitis (ALT and AST); also recorded: pleural effusion (G3) | Adverse events (grade) / tolerability ([3]; Patient 010, endometrial cancer, neutropenia in Cycle 1 at 750 mg/m^2): neutropenia (G3); also recorded: transient Grade 3 anaemia | Adverse events (grade) / tolerability ([3]; Patient 011, uterine carcinosarcoma, 375 mg/m^2 twice weekly): transient neutropaenia (G3); also recorded: low haemoglobin (G2) | Adverse events (grade) / tolerability ([3]; Patient 012, cholangiocarcinoma): tolerated treatment well | Adverse events (grade) / tolerability ([3]; Patient 015, cancer of unknown primary, Cycle 1 Day 8): thrombocytopenia (G3); also recorded: lymphopenia (G3); also recorded: neutropenia (G2) | Adverse events (grade) / tolerability ([3]; Patient 017, lung cancer): tolerated NUC-1031 well | Adverse events (grade) / tolerability ([3]; Patient 021, fallopian tube cancer, 625 mg/m^2 weekly): tolerated NUC-1031 well | Adverse events (grade) / tolerability ([3]; Patient 027, ovarian cancer, ALT after Cycle 1 Day 1 at 725 mg/m^2, a DLT): elevated ALT (G3); also recorded: mild neutropenia | ALT ([3]; Patient 027, ovarian cancer, day 7, from 96 at baseline): 256 | Adverse events (grade) / tolerability ([3]; Patient 030, ovarian cancer, 725 mg/m^2 weekly): tolerated study drug well | Adverse events (grade) / tolerability ([3]; Patient 036, renal carcinoma, 825 mg/m^2 weekly, thrombocytopenia following Cycle 5 Day 1): thrombocytopenia (G3); also recorded: tolerating NUC-1031 much better than their previous regimen | Adverse events (grade) / tolerability ([3]; Patient 037, pancreatic cancer, 1,000, then 900 mg/m^2 weekly): loss of appetite, severe fatigue | Adverse events (grade) / tolerability ([3]; Patient 038, ovarian cancer, 900 mg/m^2 weekly, main toxicity, days 3 to 4): delayed onset fatigue | Adverse events (grade) / tolerability ([3]; Patient 040, cholangiocarcinoma, source was a stent blocked with tumour and a biliary tract cyst): infection (G3) | Adverse events (grade) / tolerability ([3]; Patient 041, breast cancer, 900 mg/m^2 weekly, fatigue during Cycle 3, neutropenia after Cycle 1 Day 8 and Day 15): fatigue (G3); also recorded: neutropenia | Adverse events (grade) / tolerability ([3]; Patient 042, cholangiocarcinoma, 900 mg/m^2 weekly, days 3-5): delayed onset fatigue (G2) | Adverse events (grade) / tolerability ([3]; Patient 043, ovarian cancer, 900 mg/m^2 weekly, fatigue on days 4 and 5): delayed onset fatigue (G2); also recorded: Leg oedema developed to G3 | Adverse events (grade) / tolerability ([3]; Patient 044, lung cancer, 900, then 825 mg/m^2 weekly): G3 lung infection; also recorded: thrombocytopenia | Adverse events (grade) / tolerability ([3]; Patient 046, adrenal carcinoma, all G3 events in Cycle 1 at 1,000 mg/m^2, fatigue (G3) and neutropenia (G2) following Cycle 8 D1): delayed onset fatigue, nausea and vomiting (all G3); also recorded: neutropenia (G2) | Adverse events (grade) / tolerability ([3]; Patient 048, ovarian cancer, ALT, AST, neutropaenia (G2), ALP following Cycle 1 Day 1 at 1,000 mg/m^2, neutropenia (G3) in Cycle 4): ALT, (G3, a DLT); also recorded: AST and neutropaenia (G2); also recorded: ALP (G1); also recorded: neutropenia (G3); also recorded: diarrhoea following each dose | Adverse events (grade) / tolerability ([3]; Patient 050 (202), oesophageal cancer, following Cycle 1 Day 1 at 900 mg/m^2): ALT and fatigue, both G3 | Adverse events (grade) / tolerability ([3]; Patient 051 (203), anal cancer, 900 mg/m^2 weekly): tolerated treatment well | Adverse events (grade) / tolerability ([3]; Patient 055 (207), ovarian cancer, 825 mg/m^2 weekly): nausea and vomiting post chemotherapy | Adverse events (grade) / tolerability ([3]; Patient 057 (209), ovarian cancer, Cycle 1 Day 15, 900 mg/m^2 weekly): anaemia and ascites both G3 | Adverse events (grade) / tolerability ([3]; Patient 058 (210), lung cancer, Cycle 1 at 825 mg/m^2, may be partly due to a congenital liver condition): G3 transaminitis (ALT), a DLT | Adverse events (grade) / tolerability ([3]; Patient 059 (211), cervical cancer, thrombocytopenia in Cycle 1 at 825 mg/m^2, fatigue during Cycle 3): thrombocytopenia (G3); also recorded: fatigue (G3) | Adverse events (grade) / tolerability ([3]; Patient 060 (212), pancreatic cancer, 825 mg/m^2 weekly, required new stent): ALP, AST, ALT, all G3 | Adverse events (grade) / tolerability ([3]; Patient 061 (213), colorectal cancer, 825 mg/m^2 weekly): no nausea or vomiting during treatment | Adverse events (grade) / tolerability ([3]; Patient 063 (215), ovarian cancer, fatigue on Cycle 3): fatigue (G3); also recorded: anaemia and neutropenia | Adverse events (grade) / tolerability ([3]; Patient 067 (219), osteosarcoma, 825 mg/m^2 weekly, neutropenia towards the end of each Cycle): neutropenia G2; also recorded: Tolerated study drug well | Adverse events (grade) / tolerability ([3]; Patient 069 (221), colorectal cancer, G4/G3 during Cycle 3 at 825 mg/m^2, G3 following Cycle 4 D1 at 750, G2 at C5 D8): neutropenia (G4); also recorded: neutropenia and leukopenia, G3; also recorded: neutropenia and leukopenia, G2 | CD34^+/CD123^+ leukaemic stem cell viability as compared to gemcitabine ([4]; 1 µM and 2.5 µM): significant reductions | depletion of CSCs (CD34^+/CD123^+ cells) compared with gemcitabine ([4]; AML blast cultures, micromolar concentrations): enhanced ability to deplete CSCs; also recorded: preferentially depletes CD34^+/CD123^+ cells
